The values below come from US20110052723A1, “USE OF COMPOUNDS BINDING TO THE SIGMA RECEPTOR LIGANDS FOR THE TREATMENT OF NEUROPATHIC PAIN DEVELOPING AS A CONSEQUENCE OF CHEMOTHERAPY” (priority 2008, published 2011).

The subject of one data set is sigma receptor. Particulars: Sigma 1 and Sigma 2; cited from earlier work.
Data set [1] relates to CD-1 mice. Nature of the data set: Paclitaxel-induced cold allodynia, acetone test.
Method: Experiments were performed in CD-1 mice (Charles River, U.S.A.) with at least n=10/experimental group. […] Control animals received the same volume of solvent (a mixture of ethanol and cremophor EL)
Mechanical allodynia was evaluated with an electronically driven Von Frey filament (Dynamic Plantar Aesthesiometer, Ugo Basile, Varese, Italy) as previously described (Nieto et al., 2008), and cold allodynia was evaluated using the acetone drop method (Polomano et al., 2001; Smith et al., 2004).
In addition, in order to study the influence of the sigma 1 receptor in this process the difference in development of allodynia was determined using wild-type mice and sigma 1-receptor knock-out-mice.
Therefore, the cumulative dose was 10 mg/kg per mouse.
BD-1063 was dissolved in normal saline just before administration and applied at doses of 8, 16, 32 or 64 mg/kg subcutaneously.
The response of the animals to the different nociceptive stimuli was tested subsequently during 2-4 weeks, depending on the test (see below), without any additional treatment. Each animal was tested only in one nociceptive model. […] Each animal received only one dose of BD-1063 and was tested in only one nociceptive model.
Procedure for assessment of cold allodynia. Cold allodynia was tested as previously described by Smith et al., 2004, by gently touching the plantar skin of the hind paws with an acetone bubble formed with a syringe connected to a thin polyethylene tube. The mice were housed and habituated for 30 min in transparent plastic boxes (7×7×13 cm) with a floor made of wire mesh. After the adaptation period, acetone was applied alternately three times to each paw at intervals of 30 s, and the duration and frequency of licking or biting were recorded. A small mirror was placed behind the chambers to allow clear observation of the paws. The time spent licking or biting the paw was recorded by a stopwatch and represented as the cumulative time of licking/biting in the six measurements. Since licking persisting more than 10 s in the experiments was very unusual, a cut-off time of 10 s was used for each trial.
Therefore, the day 10, after the habituation period to the apparatus, baseline latencies were recorded, 30 min later BD-1063 or saline was injected s.c. and paw withdrawal latencies were assessed again 30, 60, 90, 120 and 180 minutes after the injection.
Data set [2] relates to CD-1 mice. Nature of the data set: Paclitaxel-induced mechanical allodynia, Von Frey test. The class given is in vivo. How it is done:
Procedure for assessment of mechanical allodynia. To assess mechanical allodynia, paw withdrawal thresholds were measured using a Dynamic Plantar Aesthesiometer (Ugo Basile, Italy). The electronic Von Frey device employs a single nonflexible filament which applies a progressively increasing force (from 0 to 10 g) against the plantar surface of the hind paw over a 20 s period. […] The day of the experiment, mice were placed individually in test compartments (9×9×14 cm) with a wire mesh bottom and allowed to acclimatize to them for 2 h. After habituation, each mouse was tested three times alternately in each hind paw.

Another data set relates to patients. The settings on record: paclitaxel 135 mg/m^2; cited from earlier work.
[3] abbreviates: sigma-1-receptor knockout animals, paclitaxel 2 mg/kg i.p. once daily during 5 days.
Setting [4] is: wild-type animals, paclitaxel 2 mg/kg i.p. once daily during 5 days.

In the case of `CC(C)=CCN1CCC2(C)c3cc(O)ccc3CC1C2C` (stereo not shown) [pentazocine], in the data set with sigma receptor, the “affinity of the sigma receptors to analgesics” value is recorded as “very high affinity”.
For `CN1CCN(CCc2ccc(Cl)c(Cl)c2)CC1` [BD-1063], in the data set with CD-1 mice [1] (BD-1063 32 mg/kg 30 min before each paclitaxel injection (2 mg/kg i.p.), days 1 to 5, tested to day 24), the “development of paclitaxel-induced cold allodynia (duration of hind paw licking/biting)” value is reported as “inhibited the development of cold allodynia”. In addition, the “expression of paclitaxel-induced cold allodynia (duration of hind paw licking/biting)” value in the data set with CD-1 mice [1] (single s.c. injection on day 10, 8, 16, 32 or 64 mg/kg, dose-dependent, significantly different from saline) is listed as “inhibited the expression of paclitaxel-induced cold allodynia”. The “expression of paclitaxel-induced mechanical allodynia (threshold force for paw withdrawal)” value in the data set with CD-1 mice [2] (single s.c. injection on day 10, 32 or 64 mg/kg, dose-dependent, significantly different from saline) was “inhibited the expression of paclitaxel-induced mechanical allodynia”.
Take `CC(=O)O[C@H]1C(=O)[C@@]2(C)[C@H]([C@H](OC(=O)c3ccccc3)[C@]3(O)C[C@H](OC(=O)[C@H](O)[C@@H](NC(=O)c4ccccc4)c4ccccc4)C(C)=C1C3(C)C)[C@]1(OC(C)=O)CO[C@@H]1C[C@@H]2O` [paclitaxel, Paclitaxel]: the “time of maximal paclitaxel-induced cold allodynia after the first injection” value in the data set with CD-1 mice [1] (control mice, paclitaxel 2 mg/kg i.p. once daily during 5 days) is 10 to 14 days; in the data set with CD-1 mice [1] (setting [4]), 10 days. In the data set on CD-1 mice [1] (paclitaxel 2 mg/kg i.p. once daily during 5 days), the “animals with significantly increased time licking/biting the stimulated paw (paclitaxel-responder animals)” value is 67%. In addition, the paclitaxel-induced cold allodynia entry in the data set with CD-1 mice [1] (setting [3]) is given as “not significantly expressed”. For the same compound, the “patients progressing to dose-limiting neurotoxicity” value in the data set with patients is reported as 0%. The “mechanical allodynia (threshold force for paw withdrawal) on day 10” value in the data set with CD-1 mice [2] (paclitaxel 2 mg/kg i.p. during 5 days, vs pre-treatment and vehicle) is on record as “induced mechanical allodynia”. Moreover, in the data set on CD-1 mice [2] (setting [3]), the paclitaxel-induced mechanical allodynia result is listed as “not significantly expressed”. Moreover, in the data set on CD-1 mice [2] (treated with paclitaxel), the “animals showing a reduction of the mechanical threshold” value is given as 96%. Also, the “time of maximal paclitaxel-induced mechanical allodynia after the first injection” value in the data set with CD-1 mice [2] (setting [4]) was 10 days.
